Patent publication US20110034714A1, “METAL COMPLEX COMPOUND, CANCER THERAPEUTIC AGENT COMPOSITION CONTAINING THE METAL COMPLEX COMPOUND AS AN ACTIVE INGREDIENT, AND INTERMEDIATE FOR THE METAL COMPLEX COMPOUND” (priority 2007, published 2011)

Columns and labels:
Assay type in all cases: in vivo
[1] = test system: human tumor SC-6-JCK; test: Anti-tumor action in nude mice transplanted with human tumor SC-6-JCK; conditions: SC-6-JCK tumor-bearing nude mice, 7.0 mg and 10.0 mg/kg, tail vein, 3 times at 4 days' intervals
Experimental: (§1) Using nude mice transplanted with human tumors SC-6-JCK and Lu-24, the anti-tumor action of the substance having the structure below (Compound 44), among the compounds of the present invention, was investigated. Each of SC-6-JCK and Lu-24 was subcutaneously implanted in nude mice, and, when the tumor volumes reached to 100 to 300 mm^3, 7.0 mg and 10.0 mg/kg of the present test substance were respectively administered to the SC-6-JCK tumor-bearing mice, and 10.0 mg and 12.0 mg/kg of the present test substance were respectively administered to the Lu-24 tumor-bearing mice, from the tail vein 3 times intermittently at 4 days' intervals.

[2] = BUN (blood urea nitrogen) as an index of nephrotoxicity in tumor-bearing nude mice; conditions: 4 days after completion of the administration; SC-6-JCK and Lu-24 tumor-bearing nude mice
Experimental: as §1

[3] = test system: human tumor Lu-24; test: Anti-tumor action in nude mice transplanted with human tumor Lu-24; conditions: Lu-24 tumor-bearing nude mice, 10.0 mg and 12.0 mg/kg, tail vein, 3 times at 4 days' intervals
Experimental: as §1

Structure (SMILES): CCOP1(=O)CP(=O)(OCC)[O][Pt]([NH2])([NH2])[O]1 (stereo not drawn) [Compound 44]
- suppression of the tumor volume [1]: suppression of the tumor volume was observed in a dose-dependent manner
- BUN (blood urea nitrogen) as an index of nephrotoxicity [2]: an increase of the BUN value was not observed
- suppression of the tumor volume [3]: suppression of the tumor volume was observed in a dose-dependent manner
